Assay [1] deals with JAK1 (Homo sapiens (Human), UniProt P23458). The assay can be described thus: Jak Biochemical HTRF Assay, JAK1. To be noted: HTRF biochemical assay, GST-tagged catalytic domain; top concentration tested […]; read-out: JAK1 IC50. An excerpt: (§1) Jak Biochemical HTRF Assay Protocol
(§2) Subsequent reagent additions employed an Agilent Bravo.

Assay [2] deals with JAK2 (Homo sapiens (Human), UniProt O60674). The assay can be described thus: Jak Biochemical HTRF Assay, JAK2. To be noted: HTRF biochemical assay, GST-tagged catalytic domain; top concentration tested […].
Sequence of JAK2 (O60674 849-1124): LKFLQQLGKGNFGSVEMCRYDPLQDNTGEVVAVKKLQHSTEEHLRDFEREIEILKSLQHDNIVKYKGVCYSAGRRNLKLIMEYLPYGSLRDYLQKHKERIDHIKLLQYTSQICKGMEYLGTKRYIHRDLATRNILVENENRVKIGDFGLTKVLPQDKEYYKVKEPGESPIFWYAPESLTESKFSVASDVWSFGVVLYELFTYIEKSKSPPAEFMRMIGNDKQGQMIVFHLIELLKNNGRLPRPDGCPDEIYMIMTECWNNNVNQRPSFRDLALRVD
Excerpt: as §1, §2

Sequence of JAK1 (P23458 875-1153): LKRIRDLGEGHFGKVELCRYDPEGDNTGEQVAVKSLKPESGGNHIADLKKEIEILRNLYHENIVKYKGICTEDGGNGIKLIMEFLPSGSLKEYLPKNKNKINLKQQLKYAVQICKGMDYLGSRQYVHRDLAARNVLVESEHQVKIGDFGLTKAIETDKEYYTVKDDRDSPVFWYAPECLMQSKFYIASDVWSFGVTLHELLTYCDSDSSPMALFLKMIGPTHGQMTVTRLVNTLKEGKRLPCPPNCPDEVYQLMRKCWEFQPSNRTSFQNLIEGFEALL

On to `CC(C)(C)OC(=O)N1CCC(CC#N)(n2cc(C(N)=O)c(Nc3cccc(-c4ccccc4)c3)n2)CC1` [Example 15-3, tert-butyl 4-[3-(biphenyl-3-ylamino)-4-carbamoyl-1H-pyrazol-1-yl]-4-(cyanomethyl)piperidine-1-carboxylate], for which the IC50 in assay [1] turned out to be 341 nM; in assay [2], 1050 nM.
As for `CC(C)(C)OC(=O)N1CCC(CC#N)(n2cc(C(N)=O)c(Nc3cccc(Cn4ccnc4)c3)n2)CC1` [Example 4-3, tert-butyl 4-(4-carbamoyl-3-{[3-(1H-imidazol-1-ylmethyl)phenyl]amino}-1H-pyrazol-1-yl)-4-(cyanomethyl)piperidine-1-carboxylate], the IC50 in assay [1] was 0.6 nM; in assay [2], 11 nM.
For `CC(C)(C)OC(=O)N1CCC(CC#N)(n2cc(C(N)=O)c(Nc3cccc(-c4ccc(F)cc4)c3)n2)CC1` [Example 15-2, tert-butyl 4-{4-carbamoyl-3-[(4′-fluorobiphenyl-3-yl)amino]-1H-pyrazol-1-yl}-4-(cyanomethyl)piperidine-1-carboxylate], in that order: 51 nM and 1100 nM.
The matching figures for `N#CCC1(n2cc(C(N)=O)c(Nc3ccc(S(=O)(=O)C(F)F)cc3)n2)CCC(NCC(F)(F)F)CC1` (stereo not drawn) [Example 40-85, Cis or trans 1-{1-(cyanomethyl)-4-[(2,2,2-trifluoroethyl)amino]cyclohexyl}-3-({4-[(difluoromethyl)sulfonyl]phenyl}amino)-1H-pyrazole-4-carboxamide]: 0.02 nM and 0.2 nM.
The matching figures for `N#CCC1(n2cc(C(N)=O)c(Nc3ccnc(F)c3)n2)CCC(NCC(F)(F)F)CC1` (stereo not drawn) [Example 40-95, Cis or trans 1-{1-(cyanomethyl)-4-[(2,2,2-trifluoroethyl)amino]cyclohexyl}-3-[(2-fluoropyridin-4-yl)amino]-1H-pyrazole-4-carboxamide]: 28 nM and 794 nM.
For `N#CCC1(n2cc(C(N)=O)c(Nc3ccnc(F)c3)n2)CCN(C(=O)C2(C(F)(F)F)CC2)CC1` [Example 34-56, 1-[4-(cyanomethyl)-1-{[1-(trifluoromethyl)cyclopropyl]carbonyl}piperidin-4-yl]-3-[(2-fluoropyridin-4-yl)amino]-1H-pyrazole-4-carboxamide], the IC50 in assay [1] came out at 2 nM; in assay [2], 40 nM.
The matching figures for `COCCOC(=O)N1CCC(CC#N)(n2cc(C(N)=O)c(Nc3ccc(F)cc3)n2)CC1` [Example 30-48, 2-methoxyethyl 4-{4-carbamoyl-3-[(4-fluorophenyl)amino]-1H-pyrazol-1-yl}-4-(cyanomethyl)piperidine-1-carboxylate]: 4 nM and 71 nM.
For `N#CCC1(n2cc(C(N)=O)c(Nc3ccccc3)n2)CN(C(=O)OCCN2CCOCC2)C1` [Example 30-55, 2-morpholin-4-ylethyl 3-[4-carbamoyl-3-(phenylamino)-1H-pyrazol-1-yl]-3-(cyanomethyl)azetidine-1-carboxylate], in that order: 74 nM and 491 nM.
As for `Cc1cccc(Nc2nn(C3(CC#N)CCN(C(=O)OC(C)(C)C)CC3)cc2C(N)=O)n1` [Example 13-2, tert-butyl 4-(4-carbamoyl-3-(6-methylpyridin-2-ylamino)-1H-pyrazol-1-yl)-4-(cyanomethyl)piperidine-1-carboxylate], the IC50 in assay [1] was determined as 13 nM; in assay [2], 1010 nM.
For `CC(C)c1ccc(CN2CCC(CC#N)(n3cc(C(N)=O)c(Nc4ccccc4)n3)CC2)cc1` [Example 21-24, 1-{4-(cyanomethyl)-1-[4-(1-methylethyl)benzyl]piperidin-4-yl}-3-(phenylamino)-1H-pyrazole-4-carboxamide], in that order: 120 nM and 1050 nM.
`CC(C)(C)C(=O)N1CCC(CC#N)(n2cc(C(N)=O)c(Nc3ccccc3)n2)CC1` [Example 34-3, 1-[4-(cyanomethyl)-1-(2,2-dimethylpropanoyl)piperidin-4-yl]-3-(phenylamino)-1H-pyrazole-4-carboxamide]: the IC50 worked out at 13 nM in assay [1] and 91 nM in assay [2].
For `CC(C)(C)OC(=O)N1CC[C@@](CC#N)(n2cc(C(N)=O)c(Nc3ccc(F)cc3)n2)[C@H](F)C1` (single isomer, unassigned) [Example 47-3, tert-butyl (3R,4S or 3S,4R)-4-{4-carbamoyl-3-[(4-fluorophenyl)amino]-1H-pyrazol-1-yl}-4-(cyanomethyl)-3-fluoropiperidine-1-carboxylate], in that order: 2 nM and 32 nM.
For `COc1ccc(C(=O)N2CCC(CC#N)(n3cc(C(N)=O)c(Nc4ccccc4)n3)CC2)cc1` [Example 34-18, 1-{4-(cyanomethyl)-1-[(4-methoxyphenyl)carbonyl]piperidin-4-yl}-3-(phenylamino)-1H-pyrazole-4-carboxamide], the values for the IC50 in assay [1] and in assay [2] were 8 nM and 137 nM, respectively.
`C[C@@H](OC(=O)N1CCC(CC#N)(n2cc(C(N)=O)c(Nc3ccnc(F)c3)n2)CC1)C1CC1` [Example 30-78, (1R)-1-cyclopropylethyl 4-{4-carbamoyl-3-[(2-fluoropyridin-4-yl)amino]-1H-pyrazol-1-yl}-4-(cyanomethyl)piperidine-1-carboxylate]: the IC50 was found to be 0.3 nM in assay [1] and 12 nM in assay [2].
The matching figures for `CC(C)(C)OC(=O)N1CCC(CC#N)(n2cc(C(N)=O)c(Nc3ccc(F)c(F)c3)n2)CC1` [Example 9-28, tert-butyl 4-{4-carbamoyl-3-[(3,4-difluorophenyl)amino]-1H-pyrazol-1-yl}-4-(cyanomethyl)piperidine-1-carboxylate]: 1 nM and 24 nM.
For `COCCCOC(=O)N1CC(CC#N)(n2cc(C(N)=O)c(Nc3ccccc3)n2)C1` [Example 30-61, 3-methoxypropyl 3-[4-carbamoyl-3-(phenylamino)-1H-pyrazol-1-yl]-3-(cyanomethyl)azetidine-1-carboxylate], in that order: 37 nM and 603 nM.
The matching figures for `N#CCC1(n2cc(C(N)=O)c(Nc3ccnc(F)c3)n2)CCC(NCC2CCCCC2)CC1` (stereo not drawn) [Example 41-8, Trans 1-{1-(cyanomethyl)-4-[(cyclohexylmethyl)amino]cyclohexyl}-3-[(2-fluoropyridin-4-yl)amino]-1H-pyrazole-4-carboxamide]: 0.8 nM and 153 nM.
In the case of `CC(C)(C)CC(=O)N1CCC(CC#N)(n2cc(C(N)=O)c(Nc3ccnc(F)c3)n2)CC1` [Example 34-54, 1-[4-(cyanomethyl)-1-(3,3-dimethylbutanoyl)piperidin-4-yl]-3-[(2-fluoropyridin-4-yl)amino]-1H-pyrazole-4-carboxamide], the IC50 came out at 0.6 nM in assay [1] and 44 nM in assay [2].
In the case of `N#CCC1(n2cc(C(N)=O)c(Nc3ccc(F)cc3)n2)CCN(C(=O)OCC(F)(F)CO)CC1` [Example 30-11, 2,2-difluoro-3-hydroxypropyl 4-(4-carbamoyl-3-(4-fluorophenylamino)-1H-pyrazol-1-yl)-4-(cyanomethyl)piperidine-1-carboxylate], the IC50 came out at 0.2 nM in assay [1] and 11 nM in assay [2].
The matching figures for `N#CCC1(n2cc(C(N)=O)c(Nc3ccnc(F)c3)n2)CCC(Nc2ccccc2Cl)CC1` (stereo not drawn) [Example 40-25, Cis or trans 1-{4-[(2-chlorophenyl)amino]-1-(cyanomethyl)cyclohexyl}-3-[(2-fluoropyridin-4-yl)amino]-1H-pyrazole-4-carboxamide]: 63 nM and 940 nM.
The matching figures for `CC(C)(C)OC(=O)N1CCC(CC#N)(n2cc(C(N)=O)c(Nc3ccc(C#N)nc3)n2)CC1` [Example 9-12, tert-butyl 4-{4-carbamoyl-3-[(6-cyanopyridin-3-yl)amino]-1H-pyrazol-1-yl}-4-(cyanomethyl)piperidine-1-carboxylate]: 0.5 nM and 6 nM.
For `CC(C)(C)OC(=O)N1CCC(CC#N)(n2cc(C(N)=O)c(Nc3ccnc(F)c3)n2)CC1` [Example 9-1, tert-Butyl 4-{4-carbamoyl-3-[(2-fluoropyridin-4-yl)amino]-1H-pyrazol-1-yl}-4-(cyanomethyl)piperidine-1-carboxylate], in that order: 0.2 nM and 5 nM.
As to `CC(C)(C)OC(=O)N1CCC(CC#N)(n2cc(C(N)=O)c(Nc3ccc(C(=O)C(F)(F)F)cc3)n2)CC1` [Example 9-11, tert-butyl 4-(4-carbamoyl-3-{[4-(trifluoroacetyl)phenyl]amino}-1H-pyrazol-1-yl)-4-(cyanomethyl)piperidine-1-carboxylate], the figures for the IC50 in assay [1] and in assay [2] were 0.2 nM and 3 nM, respectively.
As to `CC(=O)N1CCN(C2CCC(CC#N)(n3cc(C(N)=O)c(Nc4ccc(F)cc4)n3)CC2)CC1` (stereo not drawn) [Example 40-76, Cis or trans 1-[4-(4-acetylpiperazin-1-yl)-1-(cyanomethyl)cyclohexyl]-3-[(4-fluorophenyl)amino]-1H-pyrazole-4-carboxamide], the values for the IC50 in assay [1] and in assay [2] were 13 nM and 225 nM, respectively.
For `N#CCC1(n2cc(C(N)=O)c(Nc3ccc(F)cc3)n2)CCN(C(=O)OCC2CC2)CC1` [Example 30-19, cyclopropylmethyl 4-{4-carbamoyl-3-[(4-fluorophenyl)amino]-1H-pyrazol-1-yl}-4-(cyanomethyl)piperidine-1-carboxylate], in that order: 1 nM and 37 nM.
For `N#CCC1(n2cc(C(N)=O)c(Nc3cncc(F)c3)n2)CCN(C(=O)OCC(F)F)CC1` [Example 30-15, 2,2-difluoroethyl 4-(4-carbamoyl-3-(5-fluoropyridin-3-ylamino)-1H-pyrazol-1-yl)-4-(cyanomethyl)piperidine-1-carboxylate], the results for the IC50 in assay [1] and in assay [2] were 1 nM and 19 nM, respectively.
For `Cc1ccncc1N1CCC(CC#N)(n2cc(C(N)=O)c(Nc3ccc(F)cc3)n2)CC1` [Example 3-33, 1-[4-(cyanomethyl)-1-(4-methylpyridin-3-yl)piperidin-4-yl]-3-[(4-fluorophenyl)amino]-1H-pyrazole-4-carboxamide], in that order: 7 nM and 102 nM.

For the origin of these results see patent US9328099B2, “Cyanomethylpyrazole carboxamides as janus kinase inhibitors” (Merck Sharp & Dohme Corp., priority 2011, dated 2016).
